We go through three compounds from patent US4576945A, “Hexaalkylmelamine-amino-oxy compounds” (priority 1984, dated 1986).

Structures can show the parent of a compound that is named as a salt.

One series concerns ovarian cancer. To be noted: clinical; cited from earlier work.
The test system of a further series is human pulmonary tumors. To be noted: cited from earlier work.
The next series concerns human renal tumors. To be noted: cited from earlier work.
Series [1] has as its system advanced ovarian adenocarcinoma. To be noted: concurrent use with cyclophosphamide, methotrexate and 5-fluorouracil; cited from earlier work.
Series [2] deals with N.C.I. animal anti-tumor screening systems. To be noted: in vivo; cited from earlier work.
A further series has as its system human disease. To be noted: in vivo; cited from earlier work.
In a further series the test system is A-204 rhabdomysarcoma. In words: Inhibition of colony formation by human tumor cell line A-204 (rhabdomysarcoma), long-term exposure. Type of series: cell-based. Particulars: Homo sapiens, A204, 216 h, 9 days, read-out: Percent survival (number of colonies in test dishes to colonies in control dishes times 100). The procedure: (§1) Cytotoxic activity of O-HMM against in vitro human tumor cells was measured as inhibition of colony formation and the results expressed as a ratio of the number of colonies in test dishes to number of control dishes, times 100 (Table 4).
(§2) Inhibition of colony formation by human tumor
(§3) ^a Percent survival as measured by the number of colonies in test

A further series has as its system A-498 renal carcinoma. In words: Inhibition of colony formation by human tumor cell line A-498 (renal carcinoma), long-term exposure. To be noted: Homo sapiens, A498, 216 h, 9 days, read-out: Percent survival (number of colonies in test dishes to colonies in control dishes times 100). Format: cell-based. The procedure: as §1, §2, §3
A further series has as its system A-101D melanoma. In words: Inhibition of colony formation by human tumor cell line A-101D (melanoma), long-term exposure. Format: cell-based. Particulars: Homo sapiens, A101D, 216 h, 9 days, read-out: Percent survival (number of colonies in test dishes to colonies in control dishes times 100). The procedure: as §1, §2, §3
The next series deals with A-549 lung carcinoma. In words: Inhibition of colony formation by human tumor cell line A-549 (lung carcinoma), long-term exposure. To be noted: Homo sapiens, A549, 216 h, 9 days, read-out: Percent survival (number of colonies in test dishes to colonies in control dishes times 100). Type of series: cell-based. The procedure: as §1, §2, §3
The conditions of series [3]: vs HMM; background statement; cited from earlier work.
[4] abbreviates: 150 ug/ml, solubility may be limiting.
Setting [5] is: 175 ug/ml, solubility may be limiting.
Setting [6] is: 225 ug/ml, solubility may be limiting.

As for `CN(C)c1nc(N(C)C)nc(N(C)C)n1` [HMM, hexamethylmelamine], in the series with ovarian cancer, the “activity against ovarian cancer” value is “significant activity against ovarian cancer”. The “activity against human pulmonary tumors in mice” value in the series on human pulmonary tumors is “active”. The “activity against human renal tumors in mice” value in the series with human renal tumors was “active”. For the same compound, the “effectiveness against advanced ovarian adenocarcinoma” value in series [1] was “effective against advanced ovarian adenocarcinoma”. Further, the “activity in most N.C.I. animal anti-tumor screening systems” value in series [2] was “no demonstrated activity”. In the series on human disease, the “activity against human disease” value was “demonstrated activity against human disease”.
On to `CN(C)c1nc(N(C)C)nc(N(C)C)n1` [HMM.HCl, reference compound], for which the viability at 20 µg/mL turned out to be 104 ± 12% in the series with A-204 rhabdomysarcoma (20 ug/ml), 97 ± 6% in the series with A-498 renal carcinoma (20 ug/ml), 101 ± 4% in the series with A-101D melanoma (20 ug/ml) and 93 ± 4% with A-549 lung carcinoma (20 ug/ml). Also, the viability at 25 µg/mL came out at 85 ± 8% in the series with A-204 rhabdomysarcoma (25 ug/ml), 90 ± 12% with A-498 renal carcinoma (25 ug/ml), 98 ± 11% with A-101D melanoma (25 ug/ml) and 91 ± 12% in the series with A-549 lung carcinoma (25 ug/ml). Moreover, the viability at 50 µg/mL turned out to be 78 ± 15% in the series on A-204 rhabdomysarcoma (50 ug/ml), 75 ± 8% in the series with A-498 renal carcinoma (50 ug/ml), 92 ± 13% in the series with A-101D melanoma (50 ug/ml) and 95 ± 8% in the series with A-549 lung carcinoma (50 ug/ml). The viability at 75 µg/mL in the series on A-204 rhabdomysarcoma (75 ug/ml) turned out to be 62 ± 24%; in the series with A-498 renal carcinoma (75 ug/ml) it was 61 ± 12%; in the series on A-101D melanoma (75 ug/ml), 73 ± 5%; with A-549 lung carcinoma (75 ug/ml), 87 ± 11%. Further, the viability at 100 µg/mL in the series with A-204 rhabdomysarcoma (100 ug/ml) was 55 ± 27%; with A-498 renal carcinoma (100 ug/ml), 50 ± 12%; in the series on A-101D melanoma (100 ug/ml) it was 53 ± 11%; with A-549 lung carcinoma (100 ug/ml) it was 86 ± 9%. The viability at 150 µg/mL worked out at 35 ± 29% in the series with A-204 rhabdomysarcoma (setting [4]), 42 ± 18% in the series on A-498 renal carcinoma (setting [4]), 37 ± 8% with A-101D melanoma (setting [4]) and 74 ± 17% in the series on A-549 lung carcinoma (setting [4]). The viability at 175 µg/mL was 38 ± 26% in the series with A-204 rhabdomysarcoma (setting [5]), 43 ± 25% in the series on A-498 renal carcinoma (setting [5]), 38 ± 9% with A-101D melanoma (setting [5]) and 59 ± 23% in the series on A-549 lung carcinoma (setting [5]). Moreover, the viability at 200 µg/mL in the series with A-204 rhabdomysarcoma (200 ug/ml) was found to be 38 ± 21%; with A-498 renal carcinoma (200 ug/ml), 42 ± 19%; in the series on A-101D melanoma (200 ug/ml), 33 ± 8%; in the series with A-549 lung carcinoma (200 ug/ml), 61 ± 19%. Further, the values for the viability at 225 µg/mL in the series with A-204 rhabdomysarcoma (setting [6]), in the series with A-498 renal carcinoma (setting [6]) and with A-101D melanoma (setting [6]) were 40 ± 28%, 41 ± 8% and 29 ± 6%, respectively. For the same compound, in the series with A-549 lung carcinoma (10 ug/ml), the viability at 10 µg/mL is 95 ± 5%.
Turning to `CNc1nc(N(C)C)nc(N(C)C)n1` [pentamethylmelamine], in series [3], the “solubility compared with HMM” value is reported as “more soluble”.
